Reference: patent US8227604B2, “Hybrid 2-aminotetralin and aryl-substituted piperazine compounds and their use in altering CNS activity” (Wayne State University, priority 2001, dated 2012)

Legend:
[1] = target: D3 receptor (Homo sapiens, UniProt P35462); assay: Agonist potency by [3H]thymidine incorporation (mitogenesis), D3; assay type: cell-based; set-up: expressed in transfected cells; host or cells: CHOp-D3 cells; details: for EC50 / Emax: [3H]thymidine incorporation; for Emax: >80% full agonist, read-out: D3 % Maxm Stim
D3 receptor, sequence (P35462 whole entry): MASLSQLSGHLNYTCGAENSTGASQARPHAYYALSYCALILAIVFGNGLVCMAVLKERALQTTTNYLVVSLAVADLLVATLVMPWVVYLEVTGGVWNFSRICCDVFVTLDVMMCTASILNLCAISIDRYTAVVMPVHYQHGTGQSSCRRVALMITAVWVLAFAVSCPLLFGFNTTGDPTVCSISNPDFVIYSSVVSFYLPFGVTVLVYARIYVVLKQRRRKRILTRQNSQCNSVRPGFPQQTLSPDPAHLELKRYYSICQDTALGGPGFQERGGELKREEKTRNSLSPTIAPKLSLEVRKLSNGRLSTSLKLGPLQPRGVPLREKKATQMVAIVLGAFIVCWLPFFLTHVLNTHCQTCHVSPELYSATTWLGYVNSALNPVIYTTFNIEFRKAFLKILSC
Experimental: (§1) Potential as domaminergenic agonists was assayed by ^3H-thymidine incorporation by standard techniques.
(§2) The EC50 values thus indicate intrinsic activities or functional activities of these compounds. The value of % maximum stimulation indicates whether a compound is a partial agonist or full agonist. Generally, a value greater than 80% is considered as a full agonist and anything less than 80% is considered as a partial agonist.

[2] = target: T1, 5HT2A receptor (Homo sapiens, UniProt P28223); assay: Binding affinity at cloned human 5HT2A receptor, [3H]Ketanserin
T1 construct: expressed in transfected cells
T1 sequence (P28223 whole entry): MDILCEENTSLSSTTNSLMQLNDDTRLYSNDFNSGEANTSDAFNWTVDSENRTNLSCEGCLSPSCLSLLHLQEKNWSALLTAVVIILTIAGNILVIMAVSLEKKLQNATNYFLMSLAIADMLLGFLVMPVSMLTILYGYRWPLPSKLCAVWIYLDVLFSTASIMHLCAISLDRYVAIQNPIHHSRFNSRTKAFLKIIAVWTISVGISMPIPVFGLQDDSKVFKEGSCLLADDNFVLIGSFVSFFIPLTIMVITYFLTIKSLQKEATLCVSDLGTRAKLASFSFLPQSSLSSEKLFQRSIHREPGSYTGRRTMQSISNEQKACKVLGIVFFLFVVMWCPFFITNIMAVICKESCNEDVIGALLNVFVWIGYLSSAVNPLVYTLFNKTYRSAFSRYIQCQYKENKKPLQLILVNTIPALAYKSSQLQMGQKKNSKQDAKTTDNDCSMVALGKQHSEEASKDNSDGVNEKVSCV

[3] = target: T2, D1 receptor (Homo sapiens, UniProt P21728); assay: Binding affinity at cloned human D1 receptor, [3H]SCH23390 (LHD1 cells)
T2 construct: expressed in transfected cells; host or cells: LHD1 cells
T2 sequence (P21728 whole entry): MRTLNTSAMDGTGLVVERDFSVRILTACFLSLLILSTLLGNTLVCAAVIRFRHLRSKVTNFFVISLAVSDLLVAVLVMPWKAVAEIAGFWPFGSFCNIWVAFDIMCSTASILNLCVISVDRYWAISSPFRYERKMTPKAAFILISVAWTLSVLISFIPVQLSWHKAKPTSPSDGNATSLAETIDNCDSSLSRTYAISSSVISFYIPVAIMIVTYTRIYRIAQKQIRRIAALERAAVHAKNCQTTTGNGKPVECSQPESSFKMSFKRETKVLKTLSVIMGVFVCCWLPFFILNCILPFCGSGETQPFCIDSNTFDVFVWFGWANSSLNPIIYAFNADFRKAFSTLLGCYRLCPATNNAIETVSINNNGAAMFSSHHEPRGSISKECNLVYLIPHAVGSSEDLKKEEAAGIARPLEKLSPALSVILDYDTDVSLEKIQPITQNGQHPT
Experimental: LHD1 cells (human receptor) are grown and prepared as described for the HA7 cells as described hereafter. The final pellet is resuspended at 5 mg protein/80 ml in 50 mM Tris-HCl containing 120 mM of NaCl, 5 mM of KCl, 2 mM of CaCl2, and 1 mM of MgCl2, pH 7.4. To wells containing 100 μl of test drug or buffer and […] of [^3H]SCH 23390 (0.18 nM final conc.), is added 0.8 ml of cell homogenate (0.05 mg protein/well), and the plates are incubated at […] for 60 min. Nonspecific binding is determined with 1 μM of SCH 23390.

[4] = target: T3, D4 receptor (Homo sapiens, UniProt P21917); assay: Binding affinity at cloned human D4 receptor, [3H]YM-09151-2 (CHO D4.4 cells); set-up: expressed in transfected cells; host or cells: CHO D4.4 cells; details: for Ki: cloned human D4
T3 sequence (P21917 1-419): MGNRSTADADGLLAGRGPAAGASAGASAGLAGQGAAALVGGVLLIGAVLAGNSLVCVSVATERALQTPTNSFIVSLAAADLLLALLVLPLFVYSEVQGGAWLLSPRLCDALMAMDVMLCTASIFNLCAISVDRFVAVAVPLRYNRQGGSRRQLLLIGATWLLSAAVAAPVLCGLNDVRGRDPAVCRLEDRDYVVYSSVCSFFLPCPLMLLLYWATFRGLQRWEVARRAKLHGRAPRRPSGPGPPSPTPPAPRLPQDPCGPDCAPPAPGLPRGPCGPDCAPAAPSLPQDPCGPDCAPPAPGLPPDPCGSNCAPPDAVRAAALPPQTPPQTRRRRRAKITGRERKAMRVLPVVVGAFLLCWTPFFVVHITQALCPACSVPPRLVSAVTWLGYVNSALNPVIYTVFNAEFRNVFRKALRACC
Experimental: CHO D4.4 cells (human receptors) are grown to confluence in D4 Puromycin medium containing 2 μg/ml puromycin, 5% fetal calf serum and 5 supplemented calf serum and 0.5% pen-strep. The cells are harvested as described for D2 and D3 cells and used at a concentration of 0.15 mg protein/well in the [^3H]YM-09151-2 binding assay.

[5] = target: T4, 5HT2C receptor (Homo sapiens, UniProt P28335); assay: Binding affinity at cloned human 5HT2C receptor, [3H]Mesulergine
T4 construct: expressed in transfected cells
T4 sequence (P28335 33-458): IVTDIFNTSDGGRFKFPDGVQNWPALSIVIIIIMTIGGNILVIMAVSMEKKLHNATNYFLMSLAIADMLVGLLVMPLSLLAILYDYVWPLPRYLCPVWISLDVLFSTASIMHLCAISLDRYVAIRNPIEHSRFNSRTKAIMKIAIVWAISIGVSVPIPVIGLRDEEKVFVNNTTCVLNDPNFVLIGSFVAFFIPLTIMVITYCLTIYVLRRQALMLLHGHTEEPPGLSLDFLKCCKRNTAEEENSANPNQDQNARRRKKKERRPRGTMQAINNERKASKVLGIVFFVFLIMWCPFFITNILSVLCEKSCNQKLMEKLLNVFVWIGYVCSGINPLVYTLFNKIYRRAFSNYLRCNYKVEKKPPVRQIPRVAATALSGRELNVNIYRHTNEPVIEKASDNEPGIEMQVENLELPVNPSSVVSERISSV

[6] = target: T5, 5HT1A receptor (Homo sapiens, UniProt P08908); assay: Binding affinity at cloned human 5HT1A receptor, [3H]8-OH-DPAT (HA7 cells)
T5 construct: expressed in transfected cells; host or cells: HA7 cells
T5 sequence (P08908 1-422): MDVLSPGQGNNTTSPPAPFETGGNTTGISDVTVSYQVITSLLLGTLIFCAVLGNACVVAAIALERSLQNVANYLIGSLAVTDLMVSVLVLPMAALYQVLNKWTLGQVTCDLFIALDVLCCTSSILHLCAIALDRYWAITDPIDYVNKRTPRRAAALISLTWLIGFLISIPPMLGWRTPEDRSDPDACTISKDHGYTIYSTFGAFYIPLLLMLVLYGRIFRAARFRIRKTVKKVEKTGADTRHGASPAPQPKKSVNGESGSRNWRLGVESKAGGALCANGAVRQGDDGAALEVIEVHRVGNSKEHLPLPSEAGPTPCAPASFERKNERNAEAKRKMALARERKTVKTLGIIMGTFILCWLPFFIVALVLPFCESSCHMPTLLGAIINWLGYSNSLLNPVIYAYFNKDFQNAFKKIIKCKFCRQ
Experimental: HA7 cells (human receptor) are grown to confluence in DMEM containing 10% fetal calf serum, 0.05% penicillin-streptomycin (pen-strep), and […] of G418. The cells are scraped from the 100 by 20 mm plates and centrifuged at 500·G for 5 min. The pellet is homogenized in 50 mM Tris-HCl, pH 7.7, with a polytron, centrifuged at 27,000·G and resuspended at 10 mg protein/ml in the same buffer. The homogenate is then stored at −70° C. in 1-ml aliquots.
The thawed cells are washed once and resuspended at 10 mg protein/80 ml in 25 mM Tris-HCl containing 100 μM of ascorbic acid and 10 mM of nialamide at pH 7.4. The assay is performed in triplicate in a 96-well plate. To 100 μl of [^3H]8-OH-DPAT (0.5 nM final conc), […] of test compound or buffer and 0.8 ml of cell homogenate (0.1 mg protein/well) is added to each well by a Tomtec Quadra 96. Nonspecific binding is defined using 1 μM dihydroergotamine. The plates are incubated at 25° C. for 60 min, then filtered. The incubation is terminated by rapid filtration through glass fiber filter paper on a Tomtec cell harvester. The filters are washed four times with ice-cold 50 mM Tris-HCl, pH 7.7, dried overnight, bagged with 10 ml scintillation cocktail before counting for 2 min. on a Wallac Betaplate 1205 liquid scintillation counter.

[7] = target: T6, D2 receptor (Homo sapiens, UniProt P14416); assay: Agonist potency by [3H]thymidine incorporation (mitogenesis), D2; assay type: cell-based; details: [3H]thymidine incorporation; for Emax: >80% full agonist, read-out: D2 % Maxm Stim
T6 construct: expressed in transfected cells
T6 sequence (P14416 whole entry): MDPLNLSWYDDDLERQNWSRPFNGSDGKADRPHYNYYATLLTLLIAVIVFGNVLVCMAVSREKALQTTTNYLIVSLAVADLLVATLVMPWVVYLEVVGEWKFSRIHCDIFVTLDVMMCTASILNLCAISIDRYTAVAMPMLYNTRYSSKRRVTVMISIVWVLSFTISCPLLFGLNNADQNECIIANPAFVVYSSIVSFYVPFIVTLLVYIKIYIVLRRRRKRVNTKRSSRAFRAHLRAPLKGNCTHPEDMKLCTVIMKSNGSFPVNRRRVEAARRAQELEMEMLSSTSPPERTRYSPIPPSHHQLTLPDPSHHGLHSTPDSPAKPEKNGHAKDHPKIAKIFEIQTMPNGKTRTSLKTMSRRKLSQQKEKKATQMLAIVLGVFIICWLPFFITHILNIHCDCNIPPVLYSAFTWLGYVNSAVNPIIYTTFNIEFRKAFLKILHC
Experimental: as §1, §2

EC50 [1] [µM]	Emax [1] [%]	Ki [2] [nM]	Ki [3] [nM]	Ki [4] [nM]	Ki [5] [nM]	Ki [6] [nM]	EC50 [7] [µM]	Emax [7] [%]	agonist character at the D3 receptor ([1]; functional assay)	affinity at the D4 receptor [4]	Compound
0.0681 ± 0.0367	67.1 ± 1.93	701 ± 16.8	3218 ± 7.77	142 ± 6.5	> 10000	88.31 ± 0.4	0.0745 ± 0.0329	54.1 ± 4.82			N#CCCCN(CCCCN1CCN(c2ccccc2)CC1)C1CCc2ccc(O)cc2C1 (centres unmarked) [Compound 8, 7-Hydroxy-2-[N-butyonitrile-(N-(4-phenylpiperazin-1-yl)-butyl)amino]tetralin]
0.11 ± 0.0333	44.1 ± 11.6	1230 ± 217	3730 ± 272	137 ± 10.2	> 10000	171 ± 32.2	0.115 ± 0.0202	44.9 ± 0.84			O=C(NCCCCN(CCCCN1CCN(c2ccccc2)CC1)C1CCc2ccc(O)cc2C1)c1ccccc1 (centres unmarked) [Compound 10a, 7-Hydroxyl-2-[N-(4-benzoylaminobutyl)-(N-(4-phenylpiperazin-1-yl)-butyl)amino]tetralin]
0.104 ± 0.0573	50.9 ± 12.6	287 ± 50.2	2950 ± 238	35.6 ± 1.42	> 10000	164 ± 27.5	0.0972 ± 0.0477	27 ± 5.54			O=C(NCCN(CCCCN1CCN(c2ccccc2)CC1)C1CCc2ccc(O)cc2C1)c1ccccc1 (centres unmarked) [Compound 10b, 7-Hydroxy-2-[N-(2-benzoylamino)ethyl-(N-(4-phenylpiperazin-1-yl)-butyl)amino]tetralin]
0.00091 ± 0.00046	74.9 ± 9.05	1780 ± 614	6120 ± 933	25.7 ± 25.7	> 10000	18.5 ± 2.46	0.00321 ± 0.00046	121 ± 26.1	partial agonism	good affinity	CCCN(CCCCN1CCN(c2ccccc2)CC1)C1CCc2ccc(O)cc2C1 (centres unmarked) [Compound 15b, 7-Hydroxyl-2-[N-propyl-(N-(4-phenylpiperazin-1-yl)-butyl)amino]tetralin]
